Reference: PubChem BioAssay (NCI)
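GI50: concentration for 50% inhibition of growth. TGI is the concentration that stops growth completely.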

Experiments:
Assay in all cases: NCI-60 cell line screen, 384-well format
[1] = test system: HL-60(TB) leukemia
[2] = test system: UACC-257 melanoma
[3] = test system: EKVX NSCLC
[4] = test system: RPMI-8226 leukemia
[5] = test system: TK-10 renal
[6] = test system: A549 NSCLC
[7] = test system: SK-MEL-2 melanoma
[8] = test system: SK-OV-3 ovarian
[9] = test system: DU-145 prostate
[10] = test system: MCF7 breast
[11] = test system: SNB-19 CNS
[12] = test system: HOP-62 NSCLC
[13] = test system: MALME-3M melanoma
[14] = test system: CCRF-CEM leukemia
[15] = test system: SW-620 colon
[16] = test system: T-47D breast
[17] = test system: HT29 colon
[18] = test system: PC-3 prostate
[19] = test system: ACHN renal
[20] = test system: UACC-62 melanoma
[21] = test system: K-562 leukemia
[22] = test system: MDA-MB-435 melanoma
[23] = test system: NCI-H322M lung
[24] = test system: HCT-15 colon
[25] = test system: RXF 393 renal
[26] = test system: NCI-H522 lung
[27] = test system: OVCAR-3 ovarian
[28] = test system: A498 renal
[29] = test system: UO-31 renal
[30] = test system: CAKI-1 renal
[31] = test system: OVCAR-8 ovarian
[32] = test system: NCI-H226 lung
[33] = test system: M14 melanoma
[34] = test system: HS 578T breast
[35] = test system: SF-539 CNS
[36] = test system: KM12 colon
[37] = test system: NCI-H23 lung
[38] = test system: MDA-MB-231 breast
[39] = test system: MDA-MB-468 breast
[40] = test system: LOX IMVI melanoma
[41] = test system: SF-295 CNS
[42] = test system: MOLT-4 leukemia
[43] = test system: OVCAR-5 ovarian
[44] = test system: SNB-75 CNS
[45] = test system: HCT-116 colon
[46] = test system: BT-549 breast
[47] = test system: SF-268 CNS
[48] = test system: OVCAR-4 ovarian
[49] = test system: NCI/ADR-RES ovarian
[50] = test system: SK-MEL-28 melanoma
[51] = test system: 786-0 renal
[52] = test system: HOP-92 NSCLC
[53] = test system: SN12C renal
[54] = test system: U251 glioblastoma
[55] = test system: IGROV1 ovarian

`Clc1ccc(C(c2ccccc2Cl)C(Cl)Cl)cc1` (stereo not given) was tested, and the GI50 [1] was 10.5 µM, the TGI [1] was 22.4 µM and the GI50 [2] was 17.6 µM. For the same compound, the TGI [2] was 31.5 µM, the GI50 [3] was 17.3 µM and the TGI [3] was 31.2 µM. It also gave a GI50 [4] of 14 µM, a TGI [4] of 27 µM and a GI50 [5] of 16.7 µM. For the same compound, the TGI [5] was 30.6 µM, the GI50 [6] was 16.9 µM and the TGI [6] was 31 µM. The GI50 [7] was 19.1 µM, the TGI [7] was 33.2 µM and the GI50 [8] was 16.1 µM. For the same compound, the TGI [8] was 29.8 µM, the GI50 [9] was 16.8 µM and the TGI [9] was 30.7 µM. It also gave a GI50 [10] of 17.6 µM, a TGI [10] of 31.7 µM and a GI50 [11] of 17.2 µM. The TGI [11] was 31.2 µM, the GI50 [12] was 19.5 µM and the TGI [12] was 33.7 µM. The GI50 [13] was 14.7 µM, the TGI [13] was 27.9 µM and the GI50 [14] was 16.2 µM. For the same compound, the TGI [14] was 29.8 µM, the GI50 [15] was 15.1 µM and the TGI [15] was 28.7 µM. For the same compound, the GI50 [16] was 15.5 µM, the TGI [16] was 29.1 µM and the GI50 [17] was 15.1 µM. The TGI [17] was 28.9 µM, the GI50 [18] was 14.3 µM and the TGI [18] was 27.6 µM. The GI50 [19] was 16 µM, the TGI [19] was 29.6 µM and the GI50 [20] was 17 µM. The TGI [20] was 30.8 µM, the GI50 [21] was 17.9 µM and the TGI [21] was 32.1 µM. The GI50 [22] was 16.8 µM, the TGI [22] was 30.7 µM and the GI50 [23] was 18.8 µM. It also gave a TGI [23] of 33.2 µM, a GI50 [24] of 13.9 µM and a TGI [24] of 27.3 µM. The GI50 [25] was 13.2 µM, the TGI [25] was 26.1 µM and the GI50 [26] was 12.9 µM. For the same compound, the TGI [26] was 25.7 µM, the GI50 [27] was 15.5 µM and the TGI [27] was 29 µM. For the same compound, the GI50 [28] was 17.4 µM, the TGI [28] was 31.3 µM and the GI50 [29] was 16.6 µM. It also gave a TGI [29] of 30.5 µM, a GI50 [30] of 12.9 µM and a TGI [30] of 25.7 µM. For the same compound, the GI50 [31] was 17 µM, the TGI [31] was 30.9 µM and the GI50 [32] was 16.2 µM. It also gave a TGI [32] of 29.9 µM, a GI50 [33] of 16.6 µM and a TGI [33] of 30.4 µM. For the same compound, the GI50 [34] was 17 µM, the TGI [34] was 30.8 µM and the GI50 [35] was 17.3 µM. For the same compound, the TGI [35] was 31.2 µM, the GI50 [36] was 16.3 µM and the TGI [36] was 30.1 µM. The GI50 [37] was 17 µM, the TGI [37] was 30.9 µM and the GI50 [38] was 16.4 µM. It also gave a TGI [38] of 30.1 µM, a GI50 [39] of 10.7 µM and a TGI [39] of 22.7 µM. The GI50 [40] was 16.4 µM, the TGI [40] was 30.1 µM and the GI50 [41] was 16.2 µM. It also gave a TGI [41] of 29.8 µM, a GI50 [42] of 5.16 µM and a TGI [42] of 17.6 µM. For the same compound, the GI50 [43] was 16.8 µM, the TGI [43] was 30.7 µM and the GI50 [44] was 17.8 µM. The TGI [44] was 32.3 µM, the GI50 [45] was 14.5 µM and the TGI [45] was 28.2 µM. The GI50 [46] was 18.5 µM, the TGI [46] was 32.6 µM and the GI50 [47] was 16.7 µM. The TGI [47] was 30.5 µM, the GI50 [48] was 15.7 µM and the TGI [48] was 29.3 µM. For the same compound, the GI50 [49] was 17.4 µM, the TGI [49] was 31.4 µM and the GI50 [50] was 17.6 µM. The TGI [50] was 31.5 µM, the GI50 [51] was 16.2 µM and the TGI [51] was 29.9 µM. For the same compound, the GI50 [52] was 15.1 µM, the TGI [52] was 28.5 µM and the GI50 [53] was 15.7 µM. It also gave a TGI [53] of 29.3 µM, a GI50 [54] of 16.6 µM and a TGI [54] of 30.5 µM. For the same compound, the GI50 [55] was 15 µM and the TGI [55] was 28.4 µM.
